In patent publication US20240316155A1, “COMPOSITION FOR TREATING SHORT BOWEL SYNDROME” (ZEALAND PHARMA A/S, priority 2021, published 2024):
*1 amine or outer side, *2 acyl side, *3 side chain or, on linkers, in order; H or OH if unused. Side-chain parts run from the residue outwards. [ ]: non-standard residue; d: D form. The star is where a group is joined. C18 diacid = O=C(O)CCCCCCCCCCCCCCCCC(=O)*; γGlu = O=C(O)[C@H](CCC(=O)[*:2])N[*:1]; Aib = CC(C)(N)C(=O)O

Tests used:
SBS mice = details: cited from earlier work
SBS patients = details: cited from earlier work
[1] = test system: Short Bowel Syndrome (SBS) mice; assay: SBS mice (ICR): stool water content; type: in vivo, C57BL/6J mice; details: ICR-resected mice
Text: (§1) Adult, male C57BL/6J mice with ˜30 g body weight of ˜4 months received a 12-cm ileum and cecum resection (ICR) with jejunocolonic anastomosis (see FIG. 1, middle). The mice were then randomly assigned to either Cpd 18 or vehicle treatment As control for the abdominal surgery, the sham group was included which had laparotomy, bowel exposure, transection and end-to-end anastomosis but no resection (see FIG. 1, bottom). To prevent intestinal obstruction, all mice were switched to liquid diet 2 days before surgery and maintained on this diet until the end of the experiment. Throughout the experiment, animals were singly housed. All mice were studied with the intention to survive to day 14.
(§2) Briefly, mice were anesthetized by i. p. injection of ketamine (100 mg/kg bw) and xylazine (15 mg/kg bw) and orally intubated and ventilated. After midline incision, the distal small bowel and the cecum were exposed and then transected 12 cm proximal to the ileocecal junction and immediately distal to the cecum. The resected bowel was removed, and the length of the specimen was measured. An end-to-end, jejunocolonic anastomosis was created and the abdomen was closed. In the sham group, laparotomy, bowel exposure, transection and end-to-end anastomosis but no resection was performed. Immediately after surgery, all mice were weighed and received 1 ml isotonic saline subcutaneously and carprofen 5 mg/kg body weight. All surgical procedures were performed by the same surgeon. Mice were kept in a heated terrarium (29° C.) for 4 h and then returned to individual cages with free access to liquid food and water. The liquid diet was provided in feeding tubes. Mice were allowed to recover for a day after surgery, and then injected once daily with 30 nmol/kg body weight of Cpd 18. 50 mM Histidine buffer pH 6, 200 mM Mannitol served as vehicle control.
Stools were collected on selected days throughout the experiment. Stool water content was assessed by collecting stools in a pre-weighed tube, weighing, and then drying overnight at 80° C. and reweighing the dried stools. […]

[2] = test system: Short Bowel Syndrome (SBS) mice; assay: Short bowel syndrome (SBS) mice, ileum and cecum resection (ICR): postoperative survival, body weight, dietary intake; type: in vivo, C57BL/6J mice; details: ICR-resected mice
Text: as §1
as §2, with “50 mM Histidine buffer pH 6, 200 mM Mannitol served as vehicle control.” left out
Mice were scored for wellbeing daily as described (Berlin et al. 2019). If the wellness score dropped to below 4 pts, or when weight loss exceeded 20%, the mouse was immediately killed and not analyzed further. […]
Body weight (FIG. 6) and food consumption (FIG. 7) was measured daily. […]

[3] = test system: Short Bowel Syndrome (SBS) mice; assay: SBS mice (ICR): visual assessment of stool consistency with reference to Bristol Stool type; type: in vivo, C57BL/6J mice
Text: as §1
Briefly, mice were anesthetized by i. p. injection of ketamine (100 mg/kg bw) and xylazine (15 mg/kg bw) and orally intubated and ventilated. After midline incision, the distal small bowel and the cecum were exposed and then transected 12 cm proximal to the ileocecal junction and immediately distal to the cecum. The resected bowel was removed, and the length of the specimen was measured. An end-to-end, jejunocolonic anastomosis was created and the abdomen was closed. In the sham group, laparotomy, bowel exposure, transection and end-to-end anastomosis but no resection was performed. […]

## CC[C@H](C)[C@H](NC(=O)[C@H](Cc1ccccc1)NC(=O)[C@H](CC(=O)O)NC(=O)[C@H](CCCNC(=N)N)NC(=O)[C@H](C)NC(=O)[C@H](C)NC(=O)[C@H](CC(C)C)NC(=O)[C@H](CC(N)=O)NC(=O)[C@H](CC(=O)O)NC(=O)[C@H](CC(C)C)NC(=O)[C@@H](NC(=O)[C@@H](NC(=O)[C@H](CC(N)=O)NC(=O)[C@H](CCSC)NC(=O)[C@H](CCC(=O)O)NC(=O)[C@H](CC(=O)O)NC(=O)[C@H](CO)NC(=O)[C@H](Cc1ccccc1)NC(=O)[C@H](CO)NC(=O)CNC(=O)[C@H](CC(=O)O)NC(=O)CNC(=O)[C@@H](N)Cc1c[nH]cn1)[C@@H](C)O)[C@@H](C)CC)C(=O)N[C@@H](CC(N)=O)C(=O)N[C@@H](Cc1c[nH]c2ccccc12)C(=O)N[C@@H](CC(C)C)C(=O)N[C@H](C(=O)N[C@@H](CCC(N)=O)C(=O)N[C@H](C(=O)N[C@@H](CCCCN)C(=O)N[C@H](C(=O)N[C@H](C(=O)N[C@@H](CC(=O)O)C(=O)O)[C@@H](C)O)[C@@H](C)CC)[C@@H](C)O)[C@@H](C)CC [Teduglutide, [Gly2]-hGLP-2 (1-33)]
SBS mice
  effect on treatment of diarrhea: intermittent effect
SBS patients
  effect on diarrhea: some effect

## H-H[Aib]EGSFTSELATILDK([γGlu-C18 diacid])QAARDFIAWLIQHKITD-OH [Cpd 18]
[1]; 30 nmol/kg once daily, day 14, vehicle approximately 75%, sham 50%
  stool water content: approximately 50%
[1]; 30 nmol/kg once daily, from day 7
  stool water content compared to vehicle: significantly reduced compared to vehicle
[1]; after 2 days
  stool water content: approximately 75%
[2]; 30 nmol/kg once daily from day 1 after surgery, vehicle 60%, sham 90%
  survival rate after 14 days: 74%
[2]; 30 nmol/kg once daily, compared to vehicle, up to day 14
  postoperative relative body weight (relative to initial weight): differed from the vehicle group after six days onwards by starting to increase towards the initial weight
[2]; 30 nmol/kg once daily, from day 2 onwards, compared to vehicle
  postoperative dietary intake: lower
[3]; day 5 after resection, vehicle Type 6 or 7, sham Type 3 or 4
  stool consistency, Bristol Stool type: Type 4 or 5
[3]; day 14, vehicle Type 6 or 7
  stool consistency, Bristol Stool type: type 4
